What is called IC50 is the concentration that inhibits the measured activity by half.

In data set [1] the test system is collagen type I alpha 1 chain (Col1a1) mRNA. The experiment in a line: Collagen I (Col1a1) mRNA level in HaCaT cells (RT-PCR). It counts as cell-based, human. The conditions noted are these: peptide 500 μM, normalized to Gapdh, n = 3. On the procedure: The peptide and control groups were pretreated with 500 and 0 μM of the peptide solution, respectively, for 2 h, followed by stimulation with 0.1 μg/mL of LPS for 24 h. Total cellular RNA was isolated using the RNeasy Mini Kit (Qiagen, Santa Clara, CA, USA). Total RNA was used to synthesize complementary DNA (cDNA) using the PrimeScript™ 1st strand cDNA synthesis kit (TaKaRa, Kusatsu, Japan). The sequences of oligonucleotide primers for amplifying inducible nitric oxide synthase (iNos), cyclooxygenase-2 (Cox-2), and collagen type I alpha 1 chain (Col1a1) synthesized from Bioneer (Daejeon, Republic of Korea) and glyceraldehyde-3-phosphate dehydrogenase (Gapdh) synthesized from Macrogen (Seoul, Republic of Korea) are listed in Table 1. […] The mRNA levels of iNos, Cox-2, and Col1a1 were normalized to that of Gapdh, which is a housekeeping gene. The mRNA levels were quantified using the 2^-ddCt method based on the Ct values.

Data set [2] relates to inducible nitric oxide synthase (iNos) mRNA. The data set can be described thus: iNos mRNA expression in LPS-induced RAW 264.7 cells (qRT-PCR). Type of data set: cell-based, murine. The conditions noted are these: peptide 500 μM pretreated 2 h, LPS 0.1 μg/mL 24 h, normalized to Gapdh, n = 3.
Experimental: (§1) The peptide and control groups were pretreated with 500 and 0 μM of the peptide solution, respectively, for 2 h, followed by stimulation with 0.1 μg/mL of LPS for 24 h. Total cellular RNA was isolated using the RNeasy Mini Kit (Qiagen, Santa Clara, CA, USA). Total RNA was used to synthesize complementary DNA (cDNA) using the PrimeScript™ 1st strand cDNA synthesis kit (TaKaRa, Kusatsu, Japan). […] The mRNA levels of iNos, Cox-2, and Col1a1 were normalized to that of Gapdh, which is a housekeeping gene. The mRNA levels were quantified using the 2^-ddCt method based on the Ct values.
The test system of data set [3] is intracellular ROS in RAW 264.7 cells. The data set can be described thus: LPS-induced intracellular ROS, DCFH-DA fluorescence, in RAW 264.7 cells. Type of data set: cell-based, murine. The following applies: peptides and carnosine 500 μM pretreated 2 h, then LPS 0.1 μg/mL 24 h, n = 3. The method, then:
RAW 264.7 cells (7.5 × 10^4 cells/mL) were seeded on sterile cover slips placed in the wells of a 12-well plate and cultured for 24 h. The cells were pretreated with peptide solutions (500 μM) and carnosine (500 μM) for 2 h and stimulated with LPS (0.1 μg/mL) for 24 h. Subsequently, they were treated with a 10 μM DCFH-DA solution for 30 min and washed with PBS. The washed cells were fixed with a 4% paraformaldehyde solution for 5 min, and intracellular ROS fluorescence was observed using a DMi8 inverted microscope (Leica, Wetzlar, Germany).

A further data set concerns phospho-JNK. The data set can be described thus: LPS-induced phosphorylation of JNK in RAW 264.7 cells (Western blot). Type of data set: cell-based, murine. The following applies: peptide 500 µM 2 h, LPS 0.1 μg/mL 15 min, densitometry relative to JNK, n = 3. The method, then: HaCaT (3.0 × 10^5 cells/well) and RAW 264.7 (1.5 × 10^5 cells/well) cells were seeded in the wells of a six-well plate. […] The cells were then washed with cold PBS and lysed in a cold lysis buffer. Cell debris was removed after centrifugation at 12,000× g for 30 min at 4 °C. Protein concentration was determined using the bicinchoninic acid (BCA) protein assay. […] The membranes were blocked with 5% skimmed milk in Tris-buffered saline–Tween (TBS-T) at room temperature for 1 h. After washing, the membranes were incubated overnight in respective primary antibody solutions (anti-phospho-ERK, anti-phospho-JNK, anti-phospho-p38, anti-collagen I, anti-GAPDH or anti-β-actin antibodies) at 4 °C. The membranes were washed with TBS-T and incubated with a horseradish peroxidase-conjugated secondary antibody solution for 1 h at room temperature. They were washed again with TBS-T and PBS and developed using an enhanced chemiluminescence reagent. Images of the immunoblots were scanned with an iBright™ CL1500 Imaging System (Thermo Fisher Scientific, Waltham, MA, USA). The band intensities of phospho-ERK, phospho-JNK, phospho-p38, and collagen I proteins were quantified by densitometric analysis using the ImageJ software 1.8.0 (National Institutes of Health, NIH, Bethesda, MD, USA). […] The levels of collagen I were normalized to those of GAPDH. Images of raw Western blots are shown in the Supplementary Data.

Data set [4] concerns cyclooxygenase-2 (Cox-2) mRNA. The data set can be described thus: Cox-2 mRNA expression in LPS-induced RAW 264.7 cells (qRT-PCR). The conditions noted are these: peptide 500 μM pretreated 2 h, LPS 0.1 μg/mL 24 h, normalized to Gapdh, n = 3. It counts as cell-based, murine. On the technique in general: In qPCR the cycle at which signal appears reflects the starting amount.
Experimental: as §1
Data set [5] deals with collagen I (COL1A1) protein. The experiment in a line: Collagen I (COL1A1) protein level in HaCaT cells (Western blot). Type of data set: cell-based, human. The conditions noted are these: peptide 500 µM, 24 h, Western blot densitometry normalized to GAPDH, n = 3. On the procedure:
HaCaT (3.0 × 10^5 cells/well) and RAW 264.7 (1.5 × 10^5 cells/well) cells were seeded in the wells of a six-well plate. HaCaT and RAW 264.7 cells were treated with the peptide solutions (500 µM) for 24 and 2 h, respectively, and then stimulated with LPS (0.1 μg/mL) for 15 min. The cells were then washed with cold PBS and lysed in a cold lysis buffer. Cell debris was removed after centrifugation at 12,000× g for 30 min at 4 °C. Protein concentration was determined using the bicinchoninic acid (BCA) protein assay. The four-times-concentrated protein-denaturing buffer (1.25 M Tris-HCl (pH 6.8), glycerol, SDS, 2-mercaptoethanol, and 0.4% bromophenol blue) was added to the cell lysate and the mixture was boiled at 100 °C for 5 min. Proteins were separated by electrophoresis on 10% (for MAPKs) or 12% (for collagen) sodium dodecyl sulfate-polyacrylamide gel and electroblotted onto polyvinylidene fluoride membranes. The membranes were blocked with 5% skimmed milk in Tris-buffered saline–Tween (TBS-T) at room temperature for 1 h. After washing, the membranes were incubated overnight in respective primary antibody solutions (anti-phospho-ERK, anti-phospho-JNK, anti-phospho-p38, anti-collagen I, anti-GAPDH or anti-β-actin antibodies) at 4 °C. The membranes were washed with TBS-T and incubated with a horseradish peroxidase-conjugated secondary antibody solution for 1 h at room temperature. They were washed again with TBS-T and PBS and developed using an enhanced chemiluminescence reagent. Images of the immunoblots were scanned with an iBright™ CL1500 Imaging System (Thermo Fisher Scientific, Waltham, MA, USA). The band intensities of phospho-ERK, phospho-JNK, phospho-p38, and collagen I proteins were quantified by densitometric analysis using the ImageJ software 1.8.0 (National Institutes of Health, NIH, Bethesda, MD, USA). To normalize for protein loading, antibodies against β-actin and GAPDH were used, and phospho-ERK 1/2, phospho-JNK, and phospho-p38 phosphorylation levels were expressed relative to those of […]. The levels of collagen I were normalized to those of GAPDH. Images of raw Western blots are shown in the Supplementary Data.
Background: A western blot detects proteins with antibodies after separation by electrophoresis.

The test system of a further data set is HaCaT cells. The data set can be described thus: Cell viability (MTT assay) in HaCaT cells. It counts as cell-based, human. The conditions noted are these: 0.032-500 µM, 24 h. The method, then:
Cell viability was assessed using an MTT assay. HaCaT cells (1.0 × 10^4 cells/mL) were seeded in a 96-well plate and cultured for 24 h. Thereafter, the cells were treated with the peptide solution (0–500 µM) for 24 h. […] The MTT solution was prepared by dissolving it in phosphate-buffered saline (PBS) at a concentration of 5 mg/mL. 10 μL of the prepared MTT solution was added to each well, and the plate was incubated for 4 h. After removing the culture medium, 200 μL of dimethyl sulfoxide (DMSO) was added to each well to solubilize any deposited formazan. The absorbance at 560 nm was measured using an Epoch microplate Spectrophotometer (BioTek, Winooski, VT, USA).
Background: Tetrazolium assays rely on reduction of a dye to a coloured formazan, in cell work by metabolically active cells.

Data set [6] can be described thus: ABTS radical scavenging activity test. Type of data set: biochemical.
Experimental: The ABTS radical cation solution was prepared by mixing 1 mL of a 14 mM ABTS solution and 1 mL of 4.9 mM potassium persulfate. The mixture reacted in the dark at room temperature for 16 h. The ABTS solution was diluted with PBS (1:50, v/v), and 190 μL of it reacted with 10 μL of the sample solution in a 96-well plate at room temperature for 5 min. The absorbance at 734 nm was measured using a SpectraMax iD3 microplate reader (Molecular Devices, San Jose, CA, USA), and the ABTS radical scavenging activity rate was calculated using the following equation:ABTS radical scavenging activity (%) = 1 − (absorbance of sample/absorbance of water) × 100

As to galloyl-QHGV [Ga-QHGV], in data set [1], the “increase of collagen I mRNA level compared with the negative control group” value is 140%. In addition, the “reduction of LPS-induced iNos mRNA level” value in data set [2] is listed as 60%. Also, the “decrease of intracellular ROS levels compared to the LPS-treated group” value in data set [3] was “reduced LPS-induced ROS levels to the greatest extent”. Besides, in the data set with phospho-JNK, the “decrease of p-JNK level” value worked out at 18%. In data set [4], the “reduction of LPS-induced Cox-2 mRNA level” value is listed as 22%. Also, the “increase of collagen I protein level” value in data set [5] is reported as 354%. In the data set with HaCaT cells, the “cytotoxicity (in words)” value is “no cytotoxicity”. Also, in data set [6] (0.01 mM, 5 min at room temperature, absorbance 734 nm, n = 3), the “ABTS radical scavenging activity” value was 74%. Besides, in data set [6] (Table S1, rank by IC50, 1 = most active), the “Anti-oxidant Rank (ABTS radical scavenging activity rank)” value was 2. Moreover, the IC50 in data set [6] (Table S1, tested 0.000001-1 mM, 5 min at room temperature, absorbance 734 nm, calculated by GraphPad Prism 5, unit inferred) was 4.58 µM.

The record behind these values is article PMC11047712, “Synergistic Antioxidant and Anti-Inflammatory Effects of Phenolic Acid-Conjugated Glutamine–Histidine–Glycine–Valine (QHGV) Peptides Derived from Oysters (Crassostrea talienwhanensis)” (Antioxidants, 2024).
